Earlier results in patent US8404246B2, “Nutritional supplement to improve supplementary target protein fraction (TPF) delivery, intracellular absorption and utilization” (priority 2010, dated 2013).
Where two headings read alike, the source gives them in different places. Values belong to the compound of their own block, whether it stands above or below them.

Legend:
[1] = exogenous form

solubility in water [1]: readily soluble
Compound: CC(=O)N[C@H]1C(O)O[C@H](CO)[C@@H](O)[C@@H]1O (stereo partly drawn) [N-acetyl D-glucosamine, N-Acetyl D-Glucosamine]

ingested glycoprotein detectable in serum after dosing (in vivo): 6%
Compound: Cl.N[C@H]1C(O)O[C@H](CO)[C@@H](O)[C@@H]1O (stereo partly drawn) [glucosamine HCl]

ingested glycoprotein detectable in serum after dosing (one recent study): 9%
Compound: glucosamine NaCl
